As a reminder, the EC50 is the concentration needed to bring the measured effect to its halfway point. The term CC50 denotes the concentration giving 50% cytotoxicity. As usually defined, the bioavailability is the share of a dose that reaches the circulation, judged against a reference dose that is usually intravenous. Low values mean little systemic uptake, high ones much systemic uptake.

For series [1], the system named is Human immunodeficiency virus 1. Kind of series: Antiviral activity against HIV-1 harboring K103N/Y181C mutant infected in human MT2 cells assessed as protection against virus-induced cytopathicity by MTT assay. Format: functional, organism-based. The following applies: Human immunodeficiency virus 1, MT2.
Series [2] deals with Human immunodeficiency virus 1. Kind of series: Antiviral activity against wild type HIV-1 IIIB infected in human MT2 cells assessed as protection against virus-induced cytopathicity by MTT assay. The series is classed as functional, organism-based. The following applies: Human immunodeficiency virus 1, IIIB. On the technique in general: Cytopathic effects are the visible damage that an infection or toxin causes in cultured cells.

Series [3] concerns Human immunodeficiency virus 1. Kind of series: Antiviral activity against HIV-1 harboring Y181C mutant infected in human MT2 cells assessed as protection against virus-induced cytopathicity by MTT assay. To be noted: Human immunodeficiency virus 1, MT2. Format: functional, organism-based.
For series [4], the system named is Human immunodeficiency virus 1. Kind of series: Antiviral activity against HIV-1 harboring K101P mutant infected in human MT2 cells assessed as protection against virus-induced cytopathicity by MTT assay. The series is classed as functional, organism-based. The following applies: Human immunodeficiency virus 1, MT2.
Series [5] in a line: Cytotoxicity against human MT2 cells assessed as cell viability. Format: toxicity, cell-based.
Series [6] relates to Human immunodeficiency virus 1. Kind of series: Antiviral activity against wild type HIV-1 IIIB infected in human MT2 cells assessed as protection against virus-induced cytopathicity. To be noted: Human immunodeficiency virus 1, IIIB. The series is classed as functional, organism-based.
For series [7], the system named is Human immunodeficiency virus 1. Kind of series: Antiviral activity against HIV-1 harboring K103N/Y181C mutant infected in human MT2 cells assessed as protection against virus-induced cytopathicity. The series is classed as functional, organism-based. To be noted: Human immunodeficiency virus 1, MT2.
Series [8] is described as follows: Metabolic stability in human liver microsomes assessed as clearance. To be noted: read-out: CLH. The series is classed as ADME, Microsome. For orientation: Liver microsomes are a subcellular fraction often used to study metabolism.
The test system of series [9] is Human immunodeficiency virus 1. Kind of series: Antiviral activity against HIV-1 harboring E138K mutant infected in human MT4 cells assessed as protection against virus-induced cytopathicity by MTT assay. To be noted: Human immunodeficiency virus 1, MT4. The series is classed as functional, organism-based.
The nature of series [10]: Oral bioavailability in Sprague-Dawley rat at 5 mg/kg measured up to 24 hrs by LC-MS analysis. Format: ADME, organism-based. The following applies: in vivo.
A short description of series [11]: Metabolic stability in rat liver microsomes assessed as clearance. The series is classed as ADME, Microsome. To be noted: read-out: CLH.
In series [12] the test system is Human immunodeficiency virus 1. Kind of series: Antiviral activity against wild type HIV-1 IIIB infected in human MT4 cells assessed as protection against virus-induced cytopathicity by MTT assay. The series is classed as functional, organism-based. To be noted: Human immunodeficiency virus 1, IIIB.
The nature of series [13]: Cytotoxicity against human MT4 cells assessed as cell viability by MTT assay. Format: toxicity, cell-based. (In general: Tetrazolium dyes change colour on reduction, which living cells bring about.)
Series [14] has as its system Human immunodeficiency virus 1. Kind of series: Antiviral activity against HIV-1 harboring K103N mutant infected in human MT4 cells assessed as protection against virus-induced cytopathicity by MTT assay. Format: functional, organism-based. To be noted: Human immunodeficiency virus 1, MT4.
Another series relates to HOS. Kind of series: Cytotoxicity against human HOS cells assessed as reduction in cell viability measured after 48 hrs. Format: functional.

In the case of `N#Cc1cc2c(Oc3ccccc3OCCn3ccc(=O)[nH]c3=O)cccn2c1`, the EC50 was 11 nM in [1], 380 nM in series [2], 310 nM in [3] and 1 nM in series [4].

Take `Cc1c(Oc2ccccc2OCCn2ccc(=O)[nH]c2=O)cc(Cl)c2ccc(C#N)cc12`: the CC50 in series [5] was greater than 100000 nM. Also, the EC50 in series [6] came out at 6.2 nM; in [7], 280 nM.

For the compound `Cc1c(Oc2ccccc2OCCn2ccc(=O)[nH]c2=O)cc(N(C)C(=O)CCl)c2ccc(C#N)cc12`, the EC50 in series [6] is 580 nM; in series [7] it was 570 nM.

Consider `C=CC(=O)N(C)c1cc(Oc2ccccc2OCCn2ccc(=O)[nH]c2=O)c(C)c2cc(C#N)ccc12`, for which the half-maximal effective concentration (EC50) in series [6] came out at 560 nM; in series [7] it was 500 nM.

`Cc1cc(/C=C/C#N)cc([N+](=O)[O-])c1Nc1nc(Nc2ccc(C#N)cc2)nc2ccccc12`: the microsomal CLint was 34.5 µL/min/mg in [8] and 33.2 µL/min/mg in series [11]. In addition, the EC50 was determined as 4.3 nM in series [9], 3.4 nM in series [12] and 3.6 nM in series [14]. In [10], this compound had a bioavailability of 16.5%. Moreover, the CC50 in [13] was found to be 6140 nM.

Turning to `Cc1cc(/C=C/C#N)cc(C)c1-n1cnc2cnc(Nc3ccc(C#N)cc3)nc21`, the CC50 in the series with HOS was determined as 42000 nM.

With `Cc1cc(/C=C/C#N)cc([N+](=O)[O-])c1Nc1nc(Nc2ccc(C#N)cc2)nc2ccc(Cl)cc12`, the microsomal CLint is 14.4 µL/min/mg in [8] and 30.6 µL/min/mg in series [11]. Further, the EC50 in series [9] stood at 17.7 nM; in series [12] it was 10.6 nM; in series [14] it was 10.2 nM. The compound further gave a bioavailability in series [10] of 15.5%. The CC50 in [13] turned out to be 3950 nM.

For `Cc1cc(/C=C/C#N)cc(C)c1Nc1ncc2ncn(-c3ccc(C#N)cc3)c2n1`, the CC50 in the series with HOS worked out at 21000 nM.

In the case of `O=C1Nc2ccc(Cl)cc2[C@@](C#CC2CC2)(C(F)(F)F)O1` [EFAVIRENZ], the values for the 50% effective concentration (EC50) in series [12] and in series [14] were 3.2 nM and 147 nM, respectively. The CC50 in series [13] is greater than 40200 nM.

In the case of `Cc1cc(C#N)cc(C)c1Oc1nc(Nc2ccc(C#N)cc2)nc(N)c1Br` [ETRAVIRINE], the EC50 stood at 10.9 nM in series [9] and 3.5 nM in series [14]. Besides, the CC50 in series [13] is greater than 4620 nM.

Consider `Cc1ccnc2c1NC(=O)c1cccnc1N2C1CC1` [NEVIRAPINE], for which the EC50 in series [1] and in series [3] was greater than 100000 nM throughout.

Consider `Cc1cc(/C=C/C#N)cc(C)c1Nc1ccnc(Nc2ccc(C#N)cc2)n1` [RILPIVIRINE], for which the CC50 with HOS came out at 10000 nM.
